Experimental data taken from article PMC7018972, “Novel and selective inactivators of Triosephosphate isomerase with anti-trematode activity” (Scientific Reports, 2020).
Where two headings read alike, the source gives them in different places.

Legend:
[1] = system: newly excysted juvenile (NEJ) F. hepatica; experiment: In vitro NEJ treatment; format: cell-based, Fasciola hepatica; details: for IC50: Fasciola hepatica, NEJ
Description: F. hepatica metacercariae were acquired from DILAVE, MGAP, Uruguay. NEJ were obtained by in vitro excystement as previously described with minor modifications. Briefly, metacercariae were incubated with 1% sodium hypochlorite for 5 min at room temperature to remove the outer cyst wall and then washed exhaustively with PBS 200 U/mL Penicillin G sulfate, […] streptomycin sulfate, 500 ng/mL amphotericin B, 10 mM HEPES, counted and divided into groups of around 20 parasites that were transferred to 12 wells tissue culture plates. Parasites were maintained at 37 °C, 5% CO2 in modified Basch’s medium. At day 1, compounds were added at the indicated concentrations and 0.5% DMSO was added to control groups; each condition was tested in duplicate. NEJ behavior was monitored under a light microscope (Olympus BX41), every day each well was recorded for a minute in order to assess parasite motility and registered using the following score: 3- normally active; 2- reduced activity (sporadic movement); 1- immotile (dead)[48].

[2] = target: Fasciola hepatica TIM (FhTIM) (Fasciola hepatica, UniProt S4UI50); experiment: Inhibition of recombinant FhTIM, coupled enzyme assay; format: biochemical
Outline: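 E. coli-expressed FhTIM preincubated with compound 1 h at 37 °C in 100 mM triethanolamine, 10 mM EDTA, pH 7.4, 10% DMSO. Aliquot diluted into coupled assay (1 mM glyceraldehyde-3-phosphate, 0.2 mM NADH, α-glycerol phosphate dehydrogenase, pH 7.4) with NADH decrease at 340 nm, 38 °C. Triplicate, two independent experiments.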

FhTIM = FhTIM (Fasciola hepatica, UniProt S4UI50); experiment: Microscale thermophoresis (MST) binding to FhTIM
Description: MST experiments were performed according to the NanoTemper technologies protocol in a Monolith NT.115 (red/blue) instrument (NanoTemper Technologies, München, Germany[36]). With this technique, the diffusion behavior of a labeled protein is measured when an infrared light excites the movement of the protein in capillaries. This behavior is the combination of two effects: the fast, local environment-dependent responses of the fluorophore to the temperature jump and the slower diffusive thermophoresis fluorescence changes. It will be modified when the protein is complexed with increasing amounts of unlabeled partners, leading to titration curves that can be fit for Kd estimation. In practice, FhTIM was labeled with the Monolith His-Tag Labeling Kit RED-tris-NTA (NanoTemper Technologies, München, Germany), as described by the manufacturer. The experiments were performed using 20% and 40% MST power and between 20–80% LED power at 24 °C. The MST traces were recorded using the standard parameters: 5 s MST power off, 30 s MST power on, and 5 s MST power off. The compounds were used at high concentrations (around 5 mM) in the bindings check assay with DMSO at 5% v/v. If the binding check was positive, then the affinity determination was performed with the same experimental settings, with serial 2x dilutions of the compound of interest.

[3] = Figure 1, ranges of inhibitory activity, read-out: IC50 range
[4] = recombinant FhTIM, 1 h incubation with compound at 37 °C, read-out: IC50

Fasciola hepatica TIM (FhTIM), sequence (S4UI50 entry or part of it): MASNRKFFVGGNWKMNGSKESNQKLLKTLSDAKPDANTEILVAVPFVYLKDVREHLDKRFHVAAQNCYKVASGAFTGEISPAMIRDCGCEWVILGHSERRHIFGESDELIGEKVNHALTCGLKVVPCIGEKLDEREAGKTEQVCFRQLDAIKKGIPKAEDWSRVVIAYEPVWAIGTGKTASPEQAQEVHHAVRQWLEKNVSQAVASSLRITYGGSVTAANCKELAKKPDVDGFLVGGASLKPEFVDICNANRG
FhTIM, sequence (S4UI50 entry or part of it): as above

For `Cc1ccc(-c2nsc(S(=O)(=O)c3ccc(C)cc3)n2)cc1` [Compound 187], the IC50 ([1]; incubation time 4 h) was 3 ± 0.5 µM, the IC50 [2, 3] was under 50 µM and the IC50 ([2]; Table 1S, screening of 340 compounds in FhTIM, table head prints no unit, µM per b8/b9, read-out: IC50) was under 25 µM. The IC50 [2, 4] was 4 ± 0.2 µM, the Kd (FhTIM; 24 °C) was 0.07 ± 0.01 µM and the Kd (FhTIM; abstract) was 0.066 µM.
In the case of `CSc1nc2cc(Cl)c(Oc3cccc(Cl)c3Cl)cc2[nH]1` [Compound 1278, triclabendazole, reference compound], the IC50 ([1]; incubation time 72 h) is reported as over 50 µM, the “concentration of effect against juvenile and adult forms of F. hepatica” value ([1]; both forms, at 48 h) is reported as “more than 50 µM” and the IC50 [2, 3] is reported as under 50 µM. It also gave an IC50 [2, 4] of 7 ± 1 µM and a Kd (FhTIM; 24 °C) of 1000 µM.
